Experiments:
carotid body [1] = experiment: Carotid body sensory activity ex vivo (carotid sinus nerve single unit discharge), mice
Description: (§1) Sensory activity from carotid bodies ex vivo was recorded as previously described (Peng, Y. J., et al., PNAS, 2003, 100, 10073-78; Peng Y. J., et. al., J. Physiol., 2006, 577, 705-716). Briefly, carotid bodies along with the sinus nerves were harvested from anaesthetized mice or rats, placed in a recording chamber (volume, 250 μl) and superfused with warm physiological saline (35° C.) at a rate of 2.5 ml/min having the following composition (mM): NaCl (140), KCl (5.4), CaCl2 (2.5), MgCl2 (0.5), HEPES (5.5), D-glucose (11), sucrose (5), and the solution was bubbled with 100% O2 and pH was adjusted to 7.35. Carotid bodies were challenged with graded hypoxia by switching the perfusate equilibrated with gas mixtures containing varying levels of O2. For assessing the carotid body response to CO2, bicarbonate-buffered medium equilibrated with either […] (baseline) or 90% 02+10% CO2 balance N2. Clearly identifiable action potentials (2-3 active units) were recorded from one of the nerve bundles with a suction electrode and stored in a computer via a data acquisition system (PowerLab/8P, AD Instruments Pty Ltd, Australia). ‘Single’ units were selected based on the height and duration of the individual action potentials using a spike discrimination program (Spike Histogram Program, Power Laboratory, AD Instruments). In each carotid body, at least two chemoreceptor units were analyzed. The PO2, and PCO2 of the superfusion medium were determined by a blood gas analyzer (ABL 5, Radiometer, Copenhagen, Denmark).
(§2) Rats and mice were treated with DL-propargylglycine (Sigma; 200 mg/kg) or Cr(III) Mesoporphyrin IX chloride (CrM459, Frontier Scientific, Logan, Utah; 1 mg/kg) intraperitoneally 2-3 h before acute experiments on anesthetized animals. NaHS (Sigma chemicals, MO) was given acutely to the ex vivo carotid body preparation. In the in vitro assays for H2S measurements, known concentrations of HO-2 inhibitor and CO donor (tricarbonyldichlororuthenium, [Ru(CO)3Cl2]2, Sigma, USA) were added to cell lysates. All solutions with drugs were prepared fresh during the experiments.
(§3) In unsedated mice RR (breaths/min), VT (μl), minute ventilation [VE (ml/min)=RR×VT], O2 consumption (VO2, ml/min), and CO2 production (VCO2 ml/min) were analyzed. Respiratory variables (RR and VT) were averaged for at least 20 consecutive breaths over 5 min of inspired O2 and CO2 challenge. VT, VE, VO2 and VCO2 were normalized to body weight. Carotid body sensory activity (discharge from ‘single’ units) was averaged during 3 min of baseline and during the 3 min of gas challenge and expressed as impulses per second unless otherwise stated. The number of secretory events and the amount of catecholamine secreted per secretory event were analyzed in each experiment and the data were expressed as total catecholamines secreted. Average data are presented as mean±S.E.M. Statistical significance was assessed by either ANOVA or two-way ANOVA with repeated measures followed by Tukey's test. p values <0.05 were considered significant.

carotid body [2] = experiment: Carotid body sensory activity ex vivo (carotid sinus nerve single unit discharge), rats
Description: as §1, §2, §3

[3] = system: H2S generation in carotid bodies; experiment: Measurement of H2S levels in carotid body homogenates, rats; type: biochemical
Description: (§4) H2S levels in the carotid body were assayed as follows. Briefly, carotid bodies were pooled (4 carotid bodies per experiment in rats; 6 carotid bodies per experiment in mice) and tissue homogenates were prepared in 100 mM potassium phosphate buffer, pH 7.4. The enzyme reaction was carried out in sealed tubes flushed with either N2 or different levels of O2—N2 gas mixtures. The PO2 of the reaction medium was determined by blood gas analyzer (ABL5). The assay mixture in a total volume of 500 μl contains (in final concentration): L-cysteine, (800 μM); pyridoxal 5′-phosphate, (80 μM); potassium phosphate buffer, pH 7.4, (100 mM); and tissue homogenate (2 μg protein). The reaction mixture was incubated at 37° C. for 1 h and at the end of the reaction, alkaline zinc acetate (1% w/v; 250 up and trichloroacetic acid (10% v/v) was added sequentially to trap H2S generated and to stop the reaction, respectively. The zinc sulfide formed was reacted sequentially with acidic N,N-dimethyl-p-phenylenediamine sulfate (20 μM) and ferric chloride (30 μM) and the absorbance was measured at 670 nm using a micro-plate reader. A standard curve relating the concentration of Na2S and absorbance was used to calculate H2S concentration and expressed as nanomoles of H2S formed per hour per milligram protein.
as §2

[4] = system: neonatal adrenal medullary chromaffin cells (AMC); experiment: Catecholamine secretion from neonatal adrenal medullary chromaffin cells by amperometry; type: cell-based, rats; conditions: 40 mM K+, AMC from PAG treated rat pups; FIG. 6B
Description: The protocols for preparation of chromaffin cells and measurements of catecholamine secretion by amperometry are as follows. Briefly, adrenal glands were harvested from anesthetized mice and rats aged P10. Chromaffin cells were enzymatically dissociated, plated on collagen (type VII; Sigma) coated coverslips, and maintained at 37° C. in a 5% CO2 incubator for 12-24 h. The growth medium consisted of F-12 K medium (Invitrogen) supplemented with 10% horse serum, 5% fetal bovine serum, and 1% Penicillin/streptomycin/glutamine cocktail (Invitrogen). Catecholamine secretion from chromaffin cells was monitored by amperometry using carbon fiber electrodes. […] Normoxic solutions were equilibrated with room air (PO2˜146 mmHg), and hypoxic solutions were equilibrated with appropriate gas mixtures that yielded medium PO2, of ˜30-40 mmHg as measured by blood gas analyzer. […]
In unsedated mice RR (breaths/min), VT (μl), minute ventilation [VE (ml/min)=RR×VT], O2 consumption (VO2, ml/min), and CO2 production (VCO2 ml/min) were analyzed. […] Carotid body sensory activity (discharge from ‘single’ units) was averaged during 3 min of baseline and during the 3 min of gas challenge and expressed as impulses per second unless otherwise stated. […]

[5] = system: H2S generation in adrenal glands; experiment: H2S generation in adrenal glands of rat pups; type: biochemical, rats; conditions: PAG treated rat pups vs vehicle; data not shown
[6] = Respiration (rate and depth) in spontaneously hypertensive and Sprague-Dawley rats, whole body polysomnography; type: in vivo; conditions: FIG. 14
Description: FIG. 14. […] Spontaneously hypertensive rats (SHR) were treated with the CSE inhibitor propargylglycine. Their respiration was measured using whole body polysomnography. The control animals were Sprague-Dawley rats.

[7] = system: H2S generation in carotid bodies; experiment: Measurement of H2S levels in carotid body homogenates, mice; type: biochemical; conditions: 1 μM, normoxia, FIG. 5A
Description: as §4, with “protein. […]” for “protein.”

[8] = systemic administration (1 mg/kg i.p.), CSE+/+ mice, FIG. 5B-D

For C#CCC(N)C(=O)O (racemic) [PAG, DL-propargylglycine], the “carotid body sensory response to hypoxia” value (carotid body [1]; CSE+/+ mice treated systemically with PAG (200 mg/kg i.p. 2-3 h before), FIG. 9) was “loss of the hypoxic response”, the “carotid body hypoxic response, acute application” value (carotid body [1]; acute application of PAG to the carotid body) was “ineffective in preventing the hypoxic response” and the “carotid body response to CO2” value (carotid body [2]; PAG treated rats (same rats tested for hypoxia), FIG. 3C) was “significantly augmented”. For the same compound, the “carotid body sensory response to hypoxia” value (carotid body [2]; PAG treated rats vs vehicle, FIG. 3B) was “significantly attenuated”, the “basal H2S levels in carotid body” value ([3]; PAG treated rats (vehicle=266±61)) was 147±50 nmol/h/mg protein and the “reduction of basal H2S levels in carotid body” value ([3]; PAG treated rats vs vehicle, p<0.05) was 55%. For the same compound, the “hypoxia-evoked H2S generation in carotid bodies” value ([3]; PAG treated rats, graded hypoxia, FIG. 3A) was “nearly absent”, the “K+-evoked catecholamine secretion” value [4] was “unaffected” and the “hypoxia-induced increase of H2S generation in adrenal glands” value [5] was “greatly reduced or absent”. The respiration frequency ([6]; control Sprague-Dawley rats treated with PAG) was “reducing respiration frequency very slightly” and the breathing pattern ([6]; spontaneously hypertensive rats (SHR) treated with PAG) was “normalized”.

For CCC1=C(C)c2cc3[n-]c(cc4nc(cc5[n-]c(cc1n2)c(C)c5CCC(=O)O)C(CCC(=O)O)=C4C)c(C)c3CC.[Cl][Cr+2] [Cr (III) MP, Cr (III) mesoporphyrin IX chloride], the “baseline carotid body activity” value (carotid body [1]; [8]) was “significantly increased”, the “carotid body hypoxic response” value (carotid body [1]; [8]) was “potentiated” and the “increase of H2S generation in carotid bodies” value ([7]; CSE+/+ mice) was 6 fold. The “increase of H2S generation in carotid bodies” value ([7]; CSE−/− (mutant) mice) was “abolished” and the “H2S generation in carotid bodies under normoxia” value ([3]; rat carotid bodies, 1 and 100 μM, FIG. 13A) was “enhanced”.

For N[C@@H](CS)C(=O)O [L-cysteine], the “effect on carotid body hypoxic response” value (carotid body [2]; 100 μM L-cysteine, isolated rat carotid body, FIG. 10) was “no significant effect”.

For [Na+].[SH-] [NaHS], the “carotid body sensory activity” value (carotid body [1]; exogenous NaHS 100 μM, CSE+/+ and CSE−/− mice, FIG. 11) was “augmented”, the “carotid body response in Ca2+-free and EGTA containing medium” value (carotid body [2]; 100 μM NaHS, rats, FIG. 4B) was “abolished” and the “onset of carotid body response after application” value (carotid body [2]; NaHS, activity returned to baseline after termination, FIG. 4A) was “within seconds”. The “carotid body sensory activity” value (carotid body [2]; exogenous NaHS, rats, FIG. 4A) was “augmented”.

For O=[C]=[Ru]([Cl])([Cl])(=[C]=O)=[C]=O [[Ru(CO)3Cl2]2, tricarbonyldichlororuthenium], the “H2S generation in carotid bodies under hypoxia” value ([3]; rat carotid bodies, hypoxia PO2=38 mmHg, 1 and 10 μM, FIG. 13B) was “inhibited H2S generation by hypoxia nearly to the levels seen under normoxia”.

With COc1ccc(Cl)cc1C(=O)NCCc1ccc(S(=O)(=O)NC(=O)NC2CCCCC2)cc1 [glibenclamide] the “prevention of carotid body response to NaHS” value (carotid body [2]; 100 μM glibenclamide, 100 μM NaHS, rats, FIG. 12) was “failed to prevent” and the “prevention of carotid body response to hypoxia” value (carotid body [2]; 100 μM glibenclamide, hypoxia PO2=42 mmHg, rats, FIG. 12) was “failed to prevent”.
